Results taken from patent US20090069300A1, “ISOQUINOLINYL AND ISOINDOLINYL DERIVATIVES AS HISTAMINE-3 ANTAGONISTS” (Wyeth, priority 2007, published 2009).
pKi: −log10 of the molar value. Structures can show the parent of a compound that is named as a salt.

What follows are compounds tested against T1, Human Histamine H3 Receptor (Homo sapiens, UniProt Q9Y5N1) (assay: Methyl histamine binding in human histamine H3 receptor cell line). Details: read-out: H3 Binding Ki.
T1 construct: expressed in transfected cells; host or cells: HEK293T (stably transfected; membranes prepared from the cells)
T1 sequence (Q9Y5N1 whole entry): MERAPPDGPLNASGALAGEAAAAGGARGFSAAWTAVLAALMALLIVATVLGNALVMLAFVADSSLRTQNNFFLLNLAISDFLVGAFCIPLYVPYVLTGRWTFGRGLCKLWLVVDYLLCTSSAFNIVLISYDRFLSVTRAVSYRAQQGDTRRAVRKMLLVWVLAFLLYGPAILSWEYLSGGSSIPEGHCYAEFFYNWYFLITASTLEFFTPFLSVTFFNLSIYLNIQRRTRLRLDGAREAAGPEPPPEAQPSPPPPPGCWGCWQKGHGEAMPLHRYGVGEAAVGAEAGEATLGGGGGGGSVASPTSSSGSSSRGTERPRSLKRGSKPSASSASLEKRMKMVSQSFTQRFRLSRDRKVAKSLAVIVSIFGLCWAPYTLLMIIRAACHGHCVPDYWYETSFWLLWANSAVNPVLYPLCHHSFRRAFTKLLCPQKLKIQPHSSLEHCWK
Method: Evaluation of Methyl Histamine Binding in Human Histamine H3 Receptor Cell Line
The affinity of test compounds for the histamine 3 (H3) receptor is evaluated in the following manner. […] Cells are scraped from the plate, transferred to centrifuge tubes, washed one time in PBS by centrifugation in a Sorvall RT7 Plus centrifuge (2000 rpm 10 minutes, 4° C.). The resulting pellets are stored at −80° C. until ready for use. Cells are re-suspended in buffer (50 mM Tris pH=7.5) and placed in a Dounce homogenizer, douncing ten times to homogenize cells. The homogenate is spun down by centrifugation (Sorvall RT7 Plus, 1800 rpm 10 minutes, 4° C.). The supernatant is placed in a Corex tube and spun down by centrifugation (Sorvall RC 5c Plus, 17,000 rpm 20 minutes, 4° C.). The pellet is resuspended in buffer (50 mM Tris, pH 7.5). Protein concentration (ug/ul) is determined using the Micro-BCA Protein Determination. The binding assay is set up in a 96 well microtiter plate in a total volume of 250 uL. Non-specific binding is determined in the presence of 10 uM clobenpropit. The final radioligand concentration is 1 nM. The test compound is serially diluted using the Beckman Biomek2000 to a final approximate range of 100 uM to 100 pM. Membranes are suspended in buffer, homogenized in 2 bursts of ten seconds using a Vitris mechanical homogenizer set at power setting 5. Ten μg of membranes are added to each well. Following a one hour incubation at 30° C., the reaction is terminated by the addition of ice cold buffer and rapid filtration with a Packard Filtermate Harvester through a GF/B filter pre-soaked with 1% PEI for one hour. The plate is dried for one hour at 37° C. and 60 μL Microscint Scintillant is added to each well. The CPM per well is measured on a Packard Top Count NXT. Ki values are determined in nM. […] CPM values are expressed as % specific binding and plotted vs compound concentration. A curve is fitted using a four-parameter logistic fit and the IC50 value is determined. The Ki is calculated from this using the Cheng-Prusoff equation: […]=IC50/1+(L/Kd) where L=concentration of free radioligand used in the assay, and Kd is the dissociation constant of the radioligand for the receptor. L is determined for each experiment by counting an aliquot of the diluted radioligand (corresponding to that added to each well) and the Kd has previously been determined under identical conditions for this cell line/radioligand.

SMILES | pKi
CC(C)NC(=O)c1ccc(-c2ccc3c(c2)CCN(CCN2CCCC2)C3=O)cc1 [Example 61, N-isopropyl-4-[1-oxo-2-(2-pyrrolidin-1-ylethyl)-1,2,3,4-tetrahydroisoquinolin-6-yl]benzamide] | > 8.00
O=C(c1ccc(-c2ccc3c(c2)CCN(CCN2CCCC2)C3)cc1)N1CCCC1 [Example 184, 6-[4-(pyrrolidin-1-ylcarbonyl)phenyl]-2-(2-pyrrolidin-1-ylethyl)-1,2,3,4-tetrahydroisoquinoline] | > 8.00
CN(C)C(=O)c1ccc(-c2ccc3c(c2)CCN(CCN2CCCC2)C3)cc1 [Example 183, N,N-dimethyl-4-[2-(2-pyrrolidin-1-ylethyl)-1,2,3,4-tetrahydroisoquinolin-6-yl]benzamide] | > 8.00
CNC(=O)c1ccc(-c2ccc3c(c2)CCN(CCCN2CCCC2)C3=O)cc1 [Example 141, N-methyl-4-[1-oxo-2-(3-pyrrolidin-1-ylpropyl)-1,2,3,4-tetrahydroisoquinolin-6-yl]benzamide] | > 8.00
CN(C)C(=O)c1ccc(Oc2ccc3c(c2)CCN(CCN2CCCC2)C3=O)cc1 [Example 95, N,N-dimethyl-4-{[1-oxo-2-(2-pyrrolidin-1-ylethyl)-1,2,3,4-tetrahydroisoquinolin-6-yl]oxy}benzamide] | 7.30 to 7.60
O=C1c2ccc(-c3ccc4c(c3)OCO4)cc2CCN1CCN1CCCC1 [Example 21, 6-(1,3-benzodioxol-5-yl)-2-(2-pyrrolidin-1-ylethyl)-3,4-dihydroisoquinolin-1(2H)-one] | 7.60 to 8.00
N#Cc1ccc(Oc2ccc3c(c2)CCN(CCN2CCCC2)C3=O)cc1 [Example 50, 4-{[1-oxo-2-(2-pyrrolidin-1-ylethyl)-1,2,3,4-tetrahydroisoquinolin-6-yl]oxy}benzonitrile] | > 8.00
O=C(NCc1cccs1)c1ccc(-c2ccc3c(c2)CCN(CCN2CCCC2)C3=O)cc1 [Example 121, 4-[1-oxo-2-(2-pyrrolidin-1-ylethyl)-1,2,3,4-tetrahydroisoquinolin-6-yl]-N-(2-thienylmethyl)benzamide] | > 8.00
O=C(c1ccc(Oc2ccc3c(c2)CCN(CCN2CCCC2)C3=O)cc1)N1CCCC1 [Example 98, 6-[4-(pyrrolidin-1-ylcarbonyl)phenoxy]-2-(2-pyrrolidin-1-ylethyl)-3,4-dihydroiso-quinolin-1(2H)-one] | > 8.00
NC(=O)c1ccc(Oc2ccc3c(c2)CCN(CCN2CCCC2)C3=O)cc1 [Example 91, 4-{[1-oxo-2-(2-pyrrolidin-1-ylethyl)-1,2,3,4-tetrahydroisoquinolin-6-yl]oxy}benzamide] | 7.60 to 8.00
COC1CCN(C(=O)c2ccc(-c3ccc4c(c3)CCN(CCN3CCCC3)C4=O)cc2)C1 (stereo not drawn) [Example 127, 6-{4-[(3-methoxypyrrolidin-1-yl)carbonyl]phenyl}-2-(2-pyrrolidin-1-ylethyl)-3,4-dihydroisoquinolin-1(2H)-one] | > 8.00
O=C(c1ccc2c(c1)CCN(CCN1CCCC1)C2=O)N1CCCC1 [Example 38, 6-(pyrrolidin-1-ylcarbonyl)-2-(2-pyrrolidin-1-ylethyl)-3,4-dihydroisoquinolin-1(2H)-one hydrochloride] | 7.60 to 8.00
O=C(c1ccc(-c2ccc3c(c2)CCN(CCN2CCCC2)C3)cc1)N1CCCCC1 [Example 185, 6-[4-(piperidin-1-ylcarbonyl)phenyl]-2-(2-pyrrolidin-1-ylethyl)-1,2,3,4-tetrahydroisoquinoline] | 7.60 to 8.00
O=C(c1ccc(-c2ccc3c(c2)CCN(CCN2CCCC2)C3=O)cc1)N1CCCC1 [Example 54, 6-[4-(pyrrolidin-1-ylcarbonyl)phenyl]-2-(2-pyrrolidin-1-ylethyl)-3,4-dihydroisoquinolin-1(2H)-one hydrochloride] | > 8.00
O=C(c1ccc(-c2ccc3c(c2)CCN(CCN2CCCC2)C3=O)cc1)N1CCC1 [Example 64, 6-[4-(azetidin-1-ylcarbonyl)phenyl]-2-(2-pyrrolidin-1-ylethyl)-3,4-dihydroisoquinolin-1(2H)-one] | > 8.00
O=C(c1cc(-c2ccc3c(c2)CCN(CCN2CCCC2)C3=O)ccc1F)N1CCCC1 [Example 131, 6-[4-fluoro-3-(pyrrolidin-1-ylcarbonyl)phenyl]-2-(2-pyrrolidin-1-ylethyl)-3,4-dihydroisoquinolin-1-(2H)-one] | > 8.00
N#Cc1ccc(-c2ccc3c(c2)CCN(CCCN2CCCCC2)C3=O)cc1 [Example 45, 4-[1-oxo-2-(3-piperidin-1-ylpropyl)-1,2,3,4-tetrahydroisoquinolin-6-yl]benzonitrile hydrochloride] | 7.60 to 8.00
O=C(c1ccc(-c2ccc3c(c2)CCN(CCN2CCCC2)C3=O)cc1)N1CCOCC1 [Example 122, 6-[4-(morpholin-4-ylcarbonyl)phenyl]-2-(2-pyrrolidin-1-ylethyl)-3,4-dihydroisoquinolin-1(2H)-one] | > 8.00
CCNC(=O)c1ccc(-c2ccc3c(c2)CCN(CCN2CCCC2)C3)cc1 [Example 182, N-ethyl-4-[2-(2-pyrrolidin-1-ylethyl)-1,2,3,4-tetrahydroisoquinolin-6-yl]benzamide] | > 8.00
N#Cc1ccc(-c2ccc3c(c2)CCN(CCCN2CCCC2)C3=O)cc1 [Example 32, 4-[1-oxo-2-(3-pyrrolidin-1-ylpropyl)-1,2,3,4-tetrahydroisoquinolin-6-yl]benzonitrile] | > 8.00
CNC(=O)c1ccc(-c2ccc3c(c2)CCN(CCN2CCCC2)C3)cc1 [Example 181, N-methyl-4-[2-(2-pyrrolidin-1-ylethyl)-1,2,3,4-tetrahydroisoquinolin-6-yl]benzamide] | > 8.00
C[C@@H]1CCCN1C(=O)c1ccc(-c2ccc3c(c2)CCN(CCN2CCCC2)C3)cc1 [Example 187] | 7.60 to 8.00

Results, then the compound that gave them:

pKi | SMILES
> 8.00 | C[C@@H]1CCCN1CCN1CCc2cc(C(=O)N3Cc4ccccc4C3)ccc2C1=O [Example 152, 6-(1,3-dihydro-2H-isoindol-2-ylcarbonyl)-2-{2-[(2R)-2-methylpyrrolidin-1-yl]ethyl}-3,4-dihydroisoquinolin-1(2H)-one]
> 8.00 | C[C@@H]1CCCN1CCN1CCc2cc(-c3ccc(C(=O)N4CCCC4)cc3)ccc2C1=O [Example 66, 2-{2-[(2R)-2-methylpyrrolidin-1-yl]ethyl}-6-[4-(pyrrolidin-1-ylcarbonyl)phenyl]-3,4-dihydroisoquinolin-1(2H)-one]
7.30 to 7.60 | O=C1c2ccc(Cn3cnc4ccccc43)cc2CN1CCN1CCCC1 [Example 112, 5-(1H-benzimidazol-1-ylmethyl)-2-(2-pyrrolidin-1-ylethyl)iso-indolin-1-one]
> 8.00 | N#Cc1ccc(Oc2ccc3c(c2)CCN(CCN2CCCC2)C3=O)cn1 [Example 52, 5-{[1-oxo-2-(2-pyrrolidin-1-ylethyl)-1,2,3,4-tetrahydroisoquinolin-6-yl]oxy}pyridine-2-carbonitrile]
7.60 to 8.00 | O=C1c2ccc(-c3cccc(F)c3)cc2CCN1CCN1CCCC1 [Example 18, 6-(3-fluorophenyl)-2-(2-pyrrolidin-1-ylethyl)-3,4-dihydroisoquinolin-1(2H)-one]
> 8.00 | CCNC(=O)c1ccc(-c2ccc3c(c2)CCN(CCN2CCC[C@H]2C)C3=O)cc1 [Example 75, N-ethyl-4-(2-{2-[(2R)-2-methylpyrrolidin-1-yl]ethyl}-1-oxo-1,2,3,4-tetrahydroisoquinolin-6-yl)benzamide]
7.60 to 8.00 | O=C1c2ccc(-c3ccccc3)cc2CCN1CCN1CCCC1 [Example 16, 6-phenyl-2-(2-pyrrolidin-1-ylethyl)-3,4-dihydroisoquinolin-1(2H)-one]
> 8.00 | C[C@@H]1CCCN1CCN1CCc2cc(C(=O)NC3CCCC3)ccc2C1=O [Example 149, N-cyclopentyl-2-{2-[(2R)-2-methylpyrrolidin-1-yl]ethyl}-1-oxo-1,2,3,4-tetrahydroisoquinoline-6-carboxamide]
> 8.00 | N#Cc1ccc2c(ccn2-c2ccc3c(c2)CCN(CCN2CCCC2)C3=O)c1 [Example 35, 1-[1-oxo-2-(2-pyrrolidin-1-ylethyl)-1,2,3,4-tetrahydroisoquinolin-6-yl]-1H-indole-5-carbonitrile Hydrochloride]
> 8.00 | C[C@@H]1CCCN1CCN1CCc2cc(C(=O)N3CCCCC3)ccc2C1=O [Example 146, 2-{2-[(2R)-2-methylpyrrolidin-1-yl]ethyl}-6-(piperidin-1-ylcarbonyl)-3,4-dihydroisoquinolin-1(2H)-one]
> 8.00 | C[C@@H]1CCCN1CCN1CCc2cc(-n3cnc4ccccc43)ccc2C1=O [Example 154, (R)-6-(1H-benzo[d]imidazol-1-yl)-2-(2-(2-methylpyrrolidin-1-yl)ethyl)-3,4-dihydroisoquinolin-1(2H)-one hydrochloride]
